pIC50: −log10 of the molar value. Values after ≈ are worked out from the molar mass of the structure shown. Active and inactive are the calls of the source. No cut-off for these calls is given here.
Key:
Rattus norvegicus [1] = assay: Induction of PTH release in iv dosed Wistar rat by radioimmunoassay; format: functional, organism-based
[2] = target: T1, Extracellular calcium-sensing receptor (Homo sapiens, UniProt P41180); assay: Antagonist activity at human CaSR expressed in CCL39 cells assessed as inhibition of extracellular calcium-induced intracellular calcium transient by FLIPR assay; format: functional, cell-based
T1 sequence (P41180 whole entry): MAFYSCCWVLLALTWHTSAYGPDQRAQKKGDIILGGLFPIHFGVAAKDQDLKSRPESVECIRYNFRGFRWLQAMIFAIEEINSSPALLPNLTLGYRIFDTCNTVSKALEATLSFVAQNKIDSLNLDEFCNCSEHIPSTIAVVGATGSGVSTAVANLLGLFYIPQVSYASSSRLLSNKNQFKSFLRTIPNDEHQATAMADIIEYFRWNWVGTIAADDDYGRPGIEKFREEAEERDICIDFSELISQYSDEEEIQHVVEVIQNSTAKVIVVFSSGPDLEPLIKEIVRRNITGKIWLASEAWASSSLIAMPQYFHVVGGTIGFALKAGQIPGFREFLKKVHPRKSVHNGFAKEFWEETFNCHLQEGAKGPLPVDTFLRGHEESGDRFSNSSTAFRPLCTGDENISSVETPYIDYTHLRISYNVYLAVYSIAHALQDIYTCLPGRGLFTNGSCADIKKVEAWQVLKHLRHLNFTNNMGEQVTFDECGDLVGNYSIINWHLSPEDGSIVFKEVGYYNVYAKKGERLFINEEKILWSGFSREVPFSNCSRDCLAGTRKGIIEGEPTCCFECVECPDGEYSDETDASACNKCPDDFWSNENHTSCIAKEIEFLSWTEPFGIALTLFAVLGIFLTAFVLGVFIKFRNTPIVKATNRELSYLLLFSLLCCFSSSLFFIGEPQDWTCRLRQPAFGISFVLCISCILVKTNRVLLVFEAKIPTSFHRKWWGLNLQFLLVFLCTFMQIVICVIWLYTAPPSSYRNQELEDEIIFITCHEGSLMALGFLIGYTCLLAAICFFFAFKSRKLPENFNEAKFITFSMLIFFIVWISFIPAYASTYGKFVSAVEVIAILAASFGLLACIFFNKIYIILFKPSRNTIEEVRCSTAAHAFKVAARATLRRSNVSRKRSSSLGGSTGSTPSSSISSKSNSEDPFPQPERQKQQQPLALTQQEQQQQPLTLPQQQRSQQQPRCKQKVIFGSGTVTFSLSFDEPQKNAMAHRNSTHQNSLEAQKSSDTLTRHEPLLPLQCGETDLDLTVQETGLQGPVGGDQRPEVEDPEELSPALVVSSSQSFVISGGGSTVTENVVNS

[3] = Oral bioavailability in rat; format: ADME, organism-based; conditions: in vivo
[4] = Aqueous solubility at pH 6.8; format: physicochemical
[5] = Aqueous solubility at pH 1.0; format: physicochemical
Rattus norvegicus [6] = assay: Induction of PTH release in Wistar rat assessed as PTH Cmax in blood at 30 mg/kg, po by radioimmunoassay; format: functional
Canis familiaris [7] = assay: Induction of PTH release in Beagle dog assessed as PTH Cmax in blood at 0.3 mg/kg, po by radioimmunoassay; format: functional, Canis lupus familiaris
Rattus norvegicus [8] = assay: Induction of PTH release in Wistar rat assessed as PTH Cmax in blood at 3 mg/kg, po by radioimmunoassay; format: functional
Canis familiaris [9] = assay: Induction of PTH release in Beagle dog at 3 mg/kg, po by radioimmunoassay; format: functional, Canis lupus familiaris

Row | SMILES | Activity (Rattus norvegicus [1]) | pIC50 [2] | other results
1 | C#CCOc1ccc2c(c1)c(-c1ccc(C(C)C)cc1)nc(=O)n2Cc1cccc(OCC(=O)O)c1 | Active | 8.47 | –
2 | CC(C)c1ccc(-c2nc(=O)n(C(C)C)c3ccc(NCc4ccccc4)cc23)cc1 | Active | 5.00 | –
3 | C=CCNc1ccc2c(c1)c(-c1ccc(C(C)C)cc1)nc(=O)n2C(C)C | Active | 7.15 | –
4 | C#CCOc1ccc2c(c1)c(-c1ccc(C(C)C)cc1)nc(=O)n2Cc1cccc(CC)c1 | Active | 7.89 | –
5 | CC#CCOc1ccc2c(c1)c(-c1ccc(C(C)C)cc1)nc(=O)n2C(C)C | Active | 6.77 | –
6 | COc1ccc2c(c1)c(-c1ccc(C(C)C)cc1)nc(=O)n2C(C)C | Active | 5.85 | –
7 | COc1ccc2c(c1)c(-c1ccc(C(=O)O)cc1)nc(=O)n2C(C)C | Active | < 4.52 | –
8 | C#CCOc1ccc2c(c1)c(-c1ccc(C(C)C)cc1)nc(=O)n2Cc1ccc(C)cc1 | Active | 8.80 | –
9 | C#CCN(CC#C)c1ccc2c(c1)c(-c1ccc(C(C)C)cc1)nc(=O)n2C(C)C | Active | 6.92 | –
10 | C#CCOc1ccc2c(c1)c(-c1ccc(C(C)C)cc1)nc(=O)n2Cc1ccc(OCC(=O)O)cc1 | Active | 7.90 | –
11 | C#CCOc1ccc2c(c1)c(-c1ccc(C(C)C)cc1)nc(=O)n2Cc1cccc(NC(=O)CN2CCN(CCOC)CC2)c1 | Active | 7.89 | bioavailability [3]: 1%; solubility [4]: 20 µg/mL (≈ 32.9 µM); solubility [5]: > 200 µg/mL
12 | COc1ccc2c(c1)c(-c1ccc(OC(C)C)cc1)nc(=O)n2C(C)C | Active | < 4.52 | –
13 | C#CCOc1ccc2c(c1)c(-c1ccc(C(C)C)cc1)nc(=O)n2Cc1cccc(NC(=O)CN2CCN(CCCN(C)C)CC2)c1 | Active | 8.09 | bioavailability [3]: 8%; solubility [4]: 100 µg/mL (≈ 158 µM); solubility [5]: > 200 µg/mL
14 | CCCOc1ccc2c(c1)c(-c1ccc(C(C)C)cc1)nc(=O)n2C(C)C | Active | 5.96 | –
15 | CCNc1ccc2c(c1)c(-c1ccc(C(C)C)cc1)nc(=O)n2C(C)C | Active | 6.34 | –
16 | COc1ccc2c(c1)c(-c1ccc(C(C)(C)C)cc1)nc(=O)n2C(C)C | Active | 5.68 | –
17 | C#CCOc1ccc2c(c1)c(-c1ccc(C(C)C)cc1)nc(=O)n2Cc1ccc(CC)cc1 | Active | 8.38 | –
18 | C#CCOc1ccc2c(c1)c(-c1ccc(C(C)C)cc1)nc(=O)n2Cc1cccc(NC(=O)CN2CCN(C)CC2)c1 | Active | 8.62 | bioavailability [3]: 1%; solubility [4]: 20 µg/mL (≈ 35.5 µM); solubility [5]: > 200 µg/mL
19 | COc1ccc2c(c1)c(-c1ccc(C)cc1)nc(=O)n2C(C)C | Active | < 4.52 | –
20 | C#CCOc1ccc2c(c1)c(-c1ccc(C(C)C)cc1)nc(=S)n2Cc1cccc(OCCO)c1 | Active | 9.40 | –
21 | CC(C)c1ccc(-c2nc(=O)n(Cc3ccccc3)c3ccc(O)c(CC4CC4)c23)cc1 | Active | 8.60 | –
22 | C#CCOc1ccc2c(c1)c(-c1ccc(C(C)C)cc1)nc(=O)n2C(C)C | Active | 8.05 | Activity (Rattus norvegicus [6]): 150 pgequiv/ml; bioavailability [3]: 20%; Activity (Canis familiaris [7]): 300 pgequiv/ml; solubility [4]: 20 µg/mL (≈ 55.5 µM); Activity (Rattus norvegicus [8]): 280 pgequiv/ml; Activity (Canis familiaris [9]): 50 pg·h/mL; solubility [5]: 20 µg/mL (≈ 55.5 µM)
23 | C#CCOc1ccc2c(c1)c(-c1ccc(C(C)C)cc1)nc(=O)n2Cc1ccc(OC)cc1 | Active | 8.38 | –
24 | C#CCOc1ccc2c(c1)c(-c1ccc(C(C)C)cc1)nc(=O)n2Cc1ccc(C(C)C)cc1 | Active | 7.57 | –

Row | SMILES | Activity (Rattus norvegicus [1]) | pIC50 [2] | other results
25 | CCCN(CCC)c1ccc2c(c1)c(-c1ccc(C(C)C)cc1)nc(=O)n2C(C)C | Active | 5.54 | –
26 | C=CCOc1ccc2c(c1)c(-c1ccc(C(C)C)cc1)nc(=O)n2C(C)C | Active | 6.74 | –
27 | COc1ccc2c(c1)c(-c1ccc(-c3ccccc3)cc1)nc(=O)n2C(C)C | Active | 5.26 | –
28 | C#CCOc1ccc2c(c1)c(-c1ccc(C(C)C)cc1)nc(=O)n2Cc1ccccc1 | Active | 8.36 | –
29 | COc1ccc2c(c1)c(-c1ccccc1)nc(=O)n2C(C)C | Active | < 4.52 | –
30 | CC(C)c1ccc(-c2nc(=O)n(C(C)C)c3ccc(O)cc23)cc1 | Active | 4.80 | –
31 | CC(C)Oc1ccc2c(c1)c(-c1ccc(C(C)C)cc1)nc(=O)n2C(C)C | Active | 5.57 | –
32 | CCCNc1ccc2c(c1)c(-c1ccc(C(C)C)cc1)nc(=O)n2C(C)C | Active | 5.96 | –
33 | COc1ccc2c(c1)c(-c1ccc(C3CC3)cc1)nc(=O)n2C(C)C | Active | 5.48 | –
34 | CCCc1c(O)ccc2c1c(-c1ccc(C(C)C)cc1)nc(=O)n2Cc1ccccc1 | Active | 8.18 | –
35 | CCOc1ccc2c(c1)c(-c1ccc(C(C)C)cc1)nc(=O)n2C(C)C | Active | 5.66 | –
36 | C=CCN(C)c1ccc2c(c1)c(-c1ccc(C(C)C)cc1)nc(=O)n2C(C)C | Active | 6.64 | –
37 | C#CCOc1ccc2c(c1)c(-c1ccc(C(C)C)cc1)nc(=O)n2Cc1cccc(OCCO)c1 | Active | 8.14 | –
38 | C=CCc1c(O)ccc2c1c(-c1ccc(C(C)C)cc1)nc(=O)n2Cc1ccccc1 | Active | 8.41 | –
39 | C#CCOc1ccc2c(c1)c(-c1ccc(C(C)C)cc1)nc(=O)n2Cc1cccc(OC)c1 | Active | 8.57 | –
40 | C#CCOc1ccc2c(c1)c(-c1ccc(C(C)C)cc1)nc(=O)n2Cc1ccc(OC)c(OCC)c1 [ATF-936] | Active | 8.85 | –
41 | C#CCNc1ccc2c(c1)c(-c1ccc(C(C)C)cc1)nc(=O)n2C(C)C | Active | 7.52 | –
42 | COC(=O)c1ccc(-c2nc(=O)n(C(C)C)c3ccc(OC)cc23)cc1 | Active | < 4.52 | –
43 | C#CCOc1ccc2c(c1)c(-c1ccc(C(C)C)cc1)nc(=O)n2Cc1cccc(C)c1 | Active | 8.74 | –
44 | CCCCOc1ccc2c(c1)c(-c1ccc(C(C)C)cc1)nc(=O)n2C(C)C | Active | 5.43 | –
45 | C#CCOc1ccc2c(c1)c(-c1ccc(C(C)C)cc1)nc(=O)n2Cc1ccc(OCC)cc1 | Active | 7.72 | –
46 | CCN(CC)c1ccc2c(c1)c(-c1ccc(C(C)C)cc1)nc(=O)n2C(C)C | Active | 6.28 | –
47 | CCc1ccc(-c2nc(=O)n(C(C)C)c3ccc(OC)cc23)cc1 | Active | 5.68 | –
